The record followed here is patent US7439207B2, “2,6 substituted pyridine-3-carbonyl derivatives serving as plant protection agents having herbicidal action” (Bayer CropScience AG, priority 2002, dated 2008).

A short description of series [1]: logP determination by HPLC on reversed-phase column (C 18), EEC Directive 79/831 Annex V.A8. The format is physicochemical. Conditions: reversed-phase HPLC column (C 18); printed in text without mark a) or b). As to the method: The logP values given in the table were determined in accordance with EEC Directive 79/831 Annex V.A8 by HPLC (High Performance Liquid Chromatography) using a reversed-phase column (C 18). Temperature: 43° C. (a) Mobile phases for the determination in the acidic range: 0.1% aqueous phosphoric acid, acetonitrile; linear gradient from 10% acetonitrile to 90% acetonitrile—corresponding measurement results in Table 1 are marked ^a). (b) Mobile phases for the determination in the neutral range: 0.01 molar aqueous phosphate buffer solution, acetonitrile; linear gradient from 10% acetonitrile to 90% acetonitrile—corresponding measurement results in Table 1 are marked ^b). Calibration was carried out using unbranched alkan-2-ones (having 3 to 16 carbon atoms) with known logP values (determination of the logP values by the retention times using linear interpolation between two successive alkanones).

Series [2] concerns weeds. The experiment in a line: Pre-emergence test (Example A), activity against weeds. The format is in vivo. Conditions: soil sprayed 24 hours after sowing, rated after three weeks. How it is done: Pre-Emergence Test • Solvent: 5 parts by weight of acetone • Emulsifier: 1 part by weight of alkylaryl polyglycol ether
(§1) To produce a suitable preparation of active compound, 1 part by weight of active compound is mixed with the stated amount of solvent, the stated amount of emulsifier is added and the concentrate is diluted with water to the desired concentration.
Seeds of the test plants are sown in normal soil. After 24 hours, the soil is sprayed with the preparation of active compound such that the particular amount of active compound desired is supplied per unit area. The concentration of active compound in the spray liquor is chosen such that the particular amount of active compound desired is applied in 1000 litres of water per hectare.
After three weeks, the degree of damage to the plants is rated in % damage in comparison to the development of the untreated control. The figures denote: • 0%=no effect (like untreated control) • 100%=total destruction

For series [3], the system named is weeds. Kind of series: Post-emergence test (Example B), activity against weeds. Conditions: test plants of 5-15 cm sprayed, rated after three weeks. The format is in vivo. As to the method: Post-Emergence Test • Solvent: 5 parts by weight of acetone • Emulsifier: 1 part by weight of alkylaryl polyglycol ether
as §1
Test plants of a height of 5-15 cm are sprayed with the preparation of active compound such that the particular amounts of active compound desired are applied per unit area. The concentration of the spray liquor is chosen such that the particular amounts of active compound desired are applied in 1 000 1 l of water/ha.
After three weeks, the degree of damage to the plants is rated in % damage in comparison to development of the untreated control.
The figures denote: • 0%=no effect (like untreated control) • 100%=total destruction

Usually chromatographic logP stands for a lipophilicity value derived from retention on a column. `CN1CCN(Cc2nc(C(F)(F)F)ccc2C(=O)C2C(=O)CCCC2=O)C1=O` [Example 1, 2-[2-(3-methyl-2-oxoimidazolidin-1-ylmethyl)-6-trifluoromethylpyridine-3-carbonyl]cyclohexane-1,3-dione] had a chromatographic logP in series [1] of 2.14. The activity against weeds result with weeds [2] and in the series on weeds [3] was “strong activity” each time.
Consider `CN1CCN(Cc2nc(C(F)(F)F)ccc2C(=O)O)C1=O` [Example II-1, 6-trifluoromethyl-2-(3-methyl-2-oxoimidazolidin-1-ylmethyl)nicotinic acid], for which the chromatographic logP in series [1] turned out to be 1.62.
